Legend:
cTNT exon 5 splicing = assay: RT-PCR of cTNT splicing event in human myoblasts; assay type: cell-based
Method: FIG. 5. Recovering of DM1 aberrant cTNT splicing event. […] Upper section, right: Recovering was significant at 25 μM.
Additional assays involved: • Reverse Transcription-PCR (RT-PCR) to detect levels of normal/aberrant splicing events in specific genes. This approach was performed in human cells from patients (see FIG. 5) or from DM1 mouse (see FIG. 8 up) (HSA^LR, Mankodi A et al., Science, 289:1769-1773 (2000)) tissues (skeletal muscle), from which total RNA was extracted from ˜0.5-1.5×10^5 cells using the Zygem Tissue Plus kit. Serca 1, Cypher or cTNNT genes reverse transcription were performed and quantification of normal/aberrant spliced band forms was obtained (ImageJ software) after running PCR products in 2% agarose gels. As shown in FIGS. 5 and 8 compounds of the invention are able to recover disease phenotypes. • Drosophila Muscle Histology, where five-day old Drosophila thoraces were embedded in Epon for transversal, semi-thin sectioning. Muscle area was quantified (see FIG. 3) by binarizing images (equal dimensions) and quantifying pixels (%) within muscle tissue with ImageJ software. […] A minimum of 8 flies were analyzed in each case.

(CUG)23 RNA hairpin = assay: 2-Aminopurine fluorescence assay of hairpin RNA unfolding; assay type: biochemical; conditions: for modification of the hairpin loops formed by the CUG repeats (2-AP fluorescence): (CUG)23 RNA, dose-range
Method: FIG. 7. […] Measurements of the fluorescence emitted (Y-axis), measured as relative fluorescence units (RFU), by 2-aminopurine in a (CUG)23 RNA (1 μM) in the presence of different compounds (dose-range approach), relative to the fluorescence emitted by the free RNA. […] These effects were not observed when incubating the RNA with DMSO (not shown), or with the small molecule pentamidine, published as a compound able to disrupt MBNL1 binding to CUG hairpins (Warf M B et al. Proc. Natl. Acad. Sci. USA 106:18551-56 (2009)). * indicates p-value <0.05 ** p-value <0.005 *** p-value p<0.0005.
Aminopurine Fluorescence assay to detect hairpin double strand RNA unfolding. An aliquot of 2-aminopurine (2AP)-CUG23 RNA (1 μM in binding buffer) was heated at 90° C. for 3 min, placed on ice, and further diluted to 30 nM in a final volume of 1 mL in binding buffer.

Serca1 exon 22 splicing = assay: Semi-quantitative RT-PCR of Serca1 splicing in HSA LR mouse skeletal muscle; assay type: in vivo; conditions: three days a/i
Method: (§1) FIG. 8. Recovering of disease phenotypes (molecular, histological and functional) in in vivo DM1 mice (HSA^LR). Upper section: VLT002 and VLT025 suppressed splicing defects in DM1 mouse skeletal muscles. VLT002 (10 μg) and VLT025 (100 μg) were intramuscular injected in the right tibialis anterior (TA) and left quadriceps (Q), respectively, of HSA^LR mice that expressed 300 CTG repeats. […] All graphs show the mean and SEM from VLT002 and VLT025-responsive animals. Middle section: Immunofluorescent detection of trans-membrane Clcn1 protein (cell outlines in gray) in quadriceps sections of no-DM1 mouse (control) and HSA^LR mice without treatment (10150.5 QD-DMSO treated) and after VLT025 treatment (10150.5 QI).
Additional assays involved: • Reverse Transcription-PCR (RT-PCR) to detect levels of normal/aberrant splicing events in specific genes. […] Serca 1, Cypher or cTNNT genes reverse transcription were performed and quantification of normal/aberrant spliced band forms was obtained (ImageJ software) after running PCR products in 2% agarose gels. […] Muscle area was quantified (see FIG. 3) by binarizing images (equal dimensions) and quantifying pixels (%) within muscle tissue with ImageJ software. […] A minimum of 8 flies were analyzed in each case.

CCUG FAM-RNA probe = assay: Gel retardation assay with FAM-CCUG probe (DM2); assay type: binding
Method: (§2) FIG. 9. VLT002 binding assessment in additional toxic repeats linked to disease through hairpin formation.
(§3) Fluorescence Electrophoretic Mobility Shift Assay to test RNA-compound binding. Briefly, an aliquot of carboxyfluorescein (FAM)-CUG10 RNA (DM1, HDL2, SCA8; see FIG. 6) was heated at 70° C. for 5 min and diluted to 300 nM. The binding reaction with compounds was then carried out as described in (Garcia-Lopez A et al. Proc. Natl. Acad. Sci. USA. 108(29):11866-71 (2011)). The reaction mix was loaded onto 8% polyacrylamide nondenaturing gels, and electrophoresis was conducted at 4° C. in TB 1× for approximately 30 min at 240V, followed by fluorescence visualization. Quantification of the free RNA band intensity was carried out using the ImageJ software. A non-linear regression analysis was used to calculate EC50, based on a total of three experimental replicates. Same approach was developed with (FAM)-CCUG8 (DM2), CAG10 (SCA3), CGG10 (FXTAS), GGGGCC5 (ALS/FSD), UGGAA6 (SCA31) probes (see FIG. 9).

CAG FAM-RNA probe = assay: Gel retardation assay with FAM-CAG probe (SCA3); assay type: binding
Method: as §2, §3

CGG FAM-RNA probe = assay: Gel retardation assay with FAM-CGG probe (FXTAS); assay type: binding
Method: as §2, §3

GGGGCC FAM-RNA probe = assay: Gel retardation assay with FAM-GGGGCC probe (FTD/ALS); assay type: binding
Method: as §2, §3

UGGAA FAM-RNA probe = assay: Gel retardation assay with FAM-UGGAA probe (SCA31); assay type: binding
Method: as §2, §3

FAM-CUU probe = assay: Gel retardation assay with FAM-CUU probe (negative control); assay type: binding
Clcn1 protein = assay: Immunofluorescent detection of Clcn1 protein in HSA LR mouse quadriceps; assay type: in vivo; conditions: 100 μg
Method: as §1
Also, an immunohistochemistry approach was used to measure ClC-1 protein levels (see FIG. 8 middle) in mouse tissues (skeletal muscle). Briefly, frozen sections of tibialis anterior & quadriceps muscle were prepared for routine immunostaining by using antibody against the ClC-1 protein (Alpha Diagnostic, San Antonio, Tex.). Primary antibody concentration used was 1:50 for ClC-1. Secondary antibody was goat anti-rabbit Alexa Fluor 488 and 546 (Invitrogen) at 1:400. Stacks of Z plane images were processed by using a blind point spread function. […]

| Structure (SMILES) | recovering of normal cTNT splicing (ex5 exclusion) (cTNT exon 5 splicing; DM1 myoblasts, 25 μM) | expression of housekeeping gene (GAPDH) (cTNT exon 5 splicing; human myoblasts) | levels of cTNT exon 5 exclusion in no DM1 cells (cTNT exon 5 splicing; no DM1 human myoblasts, dose-response) | modification of the hairpin loops formed by the CUG repeats (2-AP fluorescence) ((CUG)23 RNA hairpin) | splicing defects (exon 22) of Serca1 (Serca1 exon 22 splicing; 10 μg intramuscular, right tibialis anterior) | binding to CCUG (DM2) probe (CCUG FAM-RNA probe) | binding to CAG (SCA3) probe (CAG FAM-RNA probe) | binding to CGG (FXTAS) probe (CGG FAM-RNA probe) | binding to GGGGCC (FTD/ALS) probe (GGGGCC FAM-RNA probe) | binding to UGGAA (SCA31) probe (UGGAA FAM-RNA probe) | binding to FAM-CUU probe (FAM-CUU probe) | decreases in the fluorescence of 2-AP ((CUG)23 RNA hairpin; change to more structured double-stranded) | splicing defects (exon 22) of Serca1 (Serca1 exon 22 splicing; 100 μg intramuscular, left quadriceps) | Clcn1 fluorescent signal vs DMSO-treated contra-lateral limb (Clcn1 protein) |
| --- | --- | --- | --- | --- | --- | --- | --- | --- | --- | --- | --- | --- | --- | --- |
| CN(C)CCc1cc2c(c3c1ccc1ccccc13)OCO2 [VLT002, Stephenanthrine] | partial recovering | No expression changes | no changes | modify the hairpin loops | partially reversed splicing defects | caused retention of the complex in the well | caused retention of the complex in the well | caused retention of the complex in the well | caused retention of the complex in the well | caused retention of the complex in the well | did not bind |  |  |  |
| C[N+](C)(C)CCc1cc2c(c3c1ccc1ccccc13)OCO2 [VLT025] |  |  |  | modify the hairpin loops |  |  |  |  |  |  |  | noteworthy decreases | partially reversed splicing defects | significantly stronger |
